Several values for one entry are separate records, joined by “and”; a condition that tells them apart may be missing. Identical values can stand only once. Each block holds one compound with its values, some of them ahead of it.
System: 857933-349-R-J2-PDC complex spheroid viability
Assay: Anticancer human tumor 857933-349-R-J2-PDC patient-derived colon adenocarcinoma cell line growth inhibition [POLQ]
Conditions: for viability, T/C: stronger effect = lower value
Description: Multicellular complex tumor spheroid response to Polymerase (POL) inhibitors (novobiocin, ART-558, RP6685) in combination with a variety of drugs and investigational agents in selected tumor cell lines
The POL inhibitors (novobiocin, ART-558, and RP6685) were evaluated both individually and in combination with standard of care and investigational anticancer small molecules within a complex spheroid model of solid tumors. . Complex spheroids include a stromal component modeled by human endothelial cells (HUVEC) and fibroblasts modeled by human mesenchymal stem cells (MSCs). The concentration ranges selected for each drug and investigational agent were based upon clinically achievable concentrations if the clinical Cmax of the agent was known.
Compounds. The drugs and investigational agents: novobiocin (NSC847541), ART-558 (NSC835418), RP-6685 (NSC848927), peposertib (NSC802822), ceralasertib (NSC780249), elimusertib (NSC800525), camonsertib (NSC841442), AZD-1390 (NSC803789), olaparib (NSC753686), talazoparib (NSC767125), rucaparib (NSC756644), sotorasib (NSC818433), MRTX-1133 (NSC836407), SN-38 (NSC673596), topotecan (NSC609699), epotoside (NSC141540), doxorubicin (NSC123127), gemcitabine (NSC613327), 5-fluorouracil (NSC19893), paclitaxel (NSC125973), vemurafenib (NSC761431), MSA-2 (NSC828583), SN-011 (NSC837082), adavosertib (NSC754352), prexasertib (NSC758257), carboplatin (NSC241240) and oxaliplatin (NSC266046), were obtained from the National Cancer Institute (NCI) Developmental Therapeutics Program Chemical Repository (21). The FDA-approved anticancer drug set is available from the Developmental Therapeutics Program at https://dtp.cancer.gov/organization/dscb/obtaining/. […] The stock solutions were prepared in dimethyl sulfoxide (DMSO, Sigma-Aldrich, St. Louis, MO, cat. D2650), except for the platinum compounds which were prepared in saline (Quality Biological, Gaithersburg, MD, cat. 114-055-101), at 800-fold the tested concentration and stored at -70 degrees C prior to their use. All drugs and investigational agents were tested over a range starting from a high concentration at or near the clinical Cmax and decreasing in half-log increments. If the clinical Cmax for an agent had not been determined, the highest concentration tested was 10 microM, except for SN-38, which was tested at a high concentration of 1 microM.
Cell Culture. All cells were maintained in an incubator at 37 degrees C and 5% CO2 with 95% humidity. The PDC lines were cultured according to standard operating procedures established by the NCI PDMR (https://pdmr.cancer.gov). Table 3 of the manuscript, lists the cell lines along with the number of the three cell types plated to form the mct-spheroids and media for tumor cell growth. After thawing, all PDC lines, except 997537-175-T-J1-PDC and 415267-285-R-J2-PDC, were cultured in Matrigel-coated flasks prepared with a working solution of 1X Ham's F-12 nutrient mix, without supplementation (Thermo Fisher Scientific, cat. 11765054), 100 U/mL penicillin-streptomycin (Thermo Fisher Scientific, cat. 15140122), and 2.5% Matrigel (Corning Inc., Corning, NY, cat. 354248) for the first three passages. The two PDC lines 997537-175-T-J1-PDC and 415267-285-R-J2-PDC were cultured on uncoated flasks. The 857933-349-R-J2-PDC line was cultured in 6C/Colon 1B media containing advanced DMEM/F-12 (Thermo Fisher Scientific, cat. 12634028), 10 mM HEPES (Thermo Fisher Scientific, cat. 15630080), 1X GlutaMAX supplement (Thermo Fisher Scientific, cat. 35050061), 0.1 mg/mL primocin (InvivoGen, San Diego, CA, cat. ant-pm-2), 10% defined fetal bovine serum, heat inactivated (HyClone Laboratories Inc., Logan, UT, cat. SH30070.03HI), 50% L-WRN conditioned media (ATCC, cat. CRL-3276), 1.25 mM N-Acetyl-L-cysteine (Sigma-Aldrich, cat. A9165), 10 mM nicotinamide (Sigma-Aldrich, cat. N0636), 1X B-27 supplement (Thermo Fisher Scientific, cat. 17504044), 1X N-2 supplement (Thermo Fisher Scientific, cat. […]
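Further: spheroids exposed to compounds for seven days before readout.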

SMILES: CC[C@@]1(O)C(=O)OCc2c1cc1n(c2=O)Cc2cc3c(CN(C)C)c(O)ccc3nc2-1
viability, T/C (compound 0.000316 µM): 98.5% and 99.4% and 113%
viability, T/C (compound 0.001 µM): 115% and 95.2% and 99.9%
viability, T/C (compound 0.00316 µM): 79.1% and 91.7% and 88.3%
viability, T/C (compound 0.01 µM): 71.2% and 80% and 87.5%
viability, T/C (compound 0.0316 µM): 66.7% and 63.9% and 53.9%
viability, T/C (compound 0.1 µM): 44.2% and 46.5% and 45.7%
IC50 (curve of compound): 76.4 nM and 80.2 nM and 66.3 nM

SMILES: COc1cccc2c1C(=O)c1c(O)c3c(c(O)c1C2=O)CC(O)(C(=O)CO)CC3OC1CC(N)C(O)C(C)O1 (stereo unspecified) + COC1C(OC(N)=O)C(O)C(Oc2ccc3c(O)c(NC(=O)c4ccc(O)c(CC=C(C)C)c4)c(=O)oc3c2C)OC1(C)C
IC50 (curve of first compound, second compound 0.0316 µM): 334 nM
IC50 (curve of first compound, second compound 0.1 µM): 216 nM
IC50 (curve of first compound, second compound 0.316 µM): 326 nM
IC50 (curve of first compound, second compound 1 µM): 226 nM
IC50 (curve of first compound, second compound 3.16 µM): 320 nM
IC50 (curve of first compound, second compound 10 µM): 263 nM
viability, T/C (second compound 0.0316 µM, first compound 0.0316 µM): 73.1%
viability, T/C (second compound 0.0316 µM, first compound 0.1 µM): 80.2%
viability, T/C (second compound 0.0316 µM, first compound 0.316 µM): 51.4%
viability, T/C (second compound 0.0316 µM, first compound 1 µM): 8.39%
viability, T/C (second compound 0.0316 µM, first compound 3.16 µM): 0.35%
viability, T/C (second compound 0.0316 µM, first compound 10 µM): 0.47%
viability, T/C (second compound 0.1 µM, first compound 0.0316 µM): 64.2%
viability, T/C (second compound 0.1 µM, first compound 0.1 µM): 70.5%
viability, T/C (second compound 0.1 µM, first compound 0.316 µM): 41.3%
viability, T/C (second compound 0.1 µM, first compound 1 µM): 5.48%
viability, T/C (second compound 0.1 µM, first compound 3.16 µM): 0.39%
viability, T/C (second compound 0.1 µM, first compound 10 µM): 0.29%
viability, T/C (second compound 0.316 µM, first compound 0.0316 µM): 79.8%
viability, T/C (second compound 0.316 µM, first compound 0.1 µM): 76.2%
viability, T/C (second compound 0.316 µM, first compound 0.316 µM): 51.3%
viability, T/C (second compound 0.316 µM, first compound 1 µM): 8.79%
viability, T/C (second compound 0.316 µM, first compound 3.16 µM): 0.37%
viability, T/C (second compound 0.316 µM, first compound 10 µM): 0.44%
viability, T/C (second compound 1 µM, first compound 0.0316 µM): 70.9%
viability, T/C (second compound 1 µM, first compound 0.1 µM): 58.8%
viability, T/C (second compound 1 µM, first compound 0.316 µM): 45.6%
viability, T/C (second compound 1 µM, first compound 1 µM): 6.1%
viability, T/C (second compound 1 µM, first compound 3.16 µM): 0.31%
viability, T/C (second compound 1 µM, first compound 10 µM): 0.43%
viability, T/C (second compound 3.16 µM, first compound 0.0316 µM): 68.3%
viability, T/C (second compound 3.16 µM, first compound 0.1 µM): 68.2%
viability, T/C (second compound 3.16 µM, first compound 0.316 µM): 50.3%
viability, T/C (second compound 3.16 µM, first compound 1 µM): 9.54%
viability, T/C (second compound 3.16 µM, first compound 3.16 µM): 0.51%
viability, T/C (second compound 3.16 µM, first compound 10 µM): 0.49%
viability, T/C (second compound 10 µM, first compound 0.0316 µM): 75.1%
viability, T/C (second compound 10 µM, first compound 0.1 µM): 80.3%
viability, T/C (second compound 10 µM, first compound 0.316 µM): 43.5%
viability, T/C (second compound 10 µM, first compound 1 µM): 10%
viability, T/C (second compound 10 µM, first compound 3.16 µM): 0.39%
viability, T/C (second compound 10 µM, first compound 10 µM): 0.49%

IC50 (compound alone, run of 01/08/2024): > 10000 nM
IC50 (compound alone, run of 01/19/2024): > 10000 nM
SMILES: Cc1cccc(N(C)C(=O)C2C(O)CCN2c2nc(C)cc(C(F)(F)F)c2C#N)c1 (stereo unspecified)
viability, T/C (compound 0.0316 µM): 96.2% [middle of 13 runs]

SMILES: C#Cc1c(F)ccc2cc(O)cc(-c3ncc4c(N5CC6CCC(C5)N6)nc(OCC56CCCN5CC(F)C6)nc4c3F)c12 (stereo unspecified)
viability, T/C (compound 0.0316 µM): 85.3% and 89.3% and 102%
viability, T/C (compound 0.1 µM): 101% and 91.6% and 82.3%
viability, T/C (compound 0.316 µM): 95.7% and 95.3% and 81.3%
viability, T/C (compound 1 µM): 87.1% and 81.7% and 96.6%
viability, T/C (compound 3.16 µM): 99.9% and 71.5% and 70.8%
viability, T/C (compound 10 µM): 76.4% and 80.9% and 93.4%
IC50 (curve of compound): > 10000 nM

SMILES: COc1ccc([C@@H](O)c2cc(-c3ncnc4cc(N5CCOCC5)ccc34)c(F)cc2Cl)nn1
viability, T/C (compound 0.0316 µM): 97.4% and 82.2% and 96.7%
viability, T/C (compound 0.1 µM): 85.4% and 95.2% and 123%
viability, T/C (compound 0.316 µM): 85.5% and 99% and 89.7%
viability, T/C (compound 1 µM): 102% and 100% and 95.2%
viability, T/C (compound 3.16 µM): 84.8% and 82.1% and 79.2%
viability, T/C (compound 10 µM): 71.6% and 58.9% and 66%
IC50 (curve of compound): > 10000 nM
